The text below walks through data of patent US20210186972A1, “FORMULATIONS AND METHODS FOR THE PREVENTION AND TREATMENT OF TUMOR METASTASIS AND TUMORIGENESIS” (THE UNITED STATES OF AMERICA, AS REPRESENTED BY THE …, priority 2018, published 2021).

Molecules are shown by their SMILES.

The subject of one data set is PC3M-GFP-PTB cells. As to the kind of experiment: Cytotoxicity measured by cellular ATP (CELLTITER GLO). It is filed as cell-based, human. The source says: FIG. 1 is a graph showing the concentration-response curve against PNC prevalence in PC3M (a metastatic prostate cancer cell line)-GFP (green fluorescent protein)-PTB (polypyrimidine tract-binding protein) cells (squares, PC3M, has a PNC prevalence of 75-85% in the absence of treatment) and cytotoxicity as measured by cellular ATP (CELLTITER GLO™) (circles). Representative PTB-GFP images for cells at the indicated concentrations (arrowheads indicate PNCs) (scale bar=5 μm) are shown in the three panels above the graph. The relative signal (%) is along the y-axis and Metarrestin [log M] is along the x-axis.
In general terms: In ATP-based viability assays light output follows the ATP content of the culture.

The test system of the next data set is PC3M xenograft mice. As to the kind of experiment: PC3M xenograft prostate cancer model. It is filed as in vivo. The method, then:
Metarrestin was tested in PC3M xenograft mice to determine whether metarrestin's anti-metastasis activity (observed in the NSG PANC1 mice and in vitro pan-cancer PNC suppression) translates into anti-metastasis activity in additional cancer models. Two weeks after subcutaneous implantation of PC3M cells, mice were started on 5 mg/kg or 25 mg/kg metarrestin or vehicle by daily IP injection for 4 additional weeks. Tumor progression was tracked by both in vivo imaging systems (“IVIS”) spectroscopy and tumor volume. Metastasis to the lungs was evaluated ex vivo through IVIS spectroscopy and by histopathology at the experimental endpoint. […] To evaluate the effect of metarrestin on a malignant xenograft considered closest to in vivo conditions, a patient-derived breast cancer xenotransplantation model (PDX) was used. Metastatic breast cancer cells harvested from the pleural fluid of a stage IV ductal breast cancer patient were inoculated into mice, and third generation mouse-passaged tumors were transplanted into the mammary fat pad of NOD.Cg-Prkdc^scid Il2rg^tm1Sug/JicTac mice. Treatment with metarrestin started after the tumors reached 150-200 mm^3. Metarrestin (25 mg/kg) or vehicle was administered daily by IP injection for 4 weeks with a 5-day on and 2-day off schedule. Tumor size and total body weight were measured twice a week, and tumor weight was measured at experimental end-point.
Prostate cancer model: Mice were implanted in the flank with 3×10^6 human PC-3M-luc-C6 […] tumor cells (Caliper Life Sciences) and split into 4 groups of 10 mice. Dosing with 5 or 25 mg/kg drug or vehicle alone (negative control) was initiated after 2 weeks and continued until the experimental endpoint, 6 weeks after implantation. Primary tumor size (measured with calipers), live tumor cell content (measured by biophotonic imaging), and total body weight were determined each week. At the endpoint, animals were euthanized, metastatic organs removed, and metastases quantitated by biophotonic imaging of the organs.

The test system of another data set is GFP-RPL29. As to the kind of experiment: Ribosome synthesis, inducible GFP-RPL29 cell line. As to conditions: induced after exposure for 5 hours. It is filed as cell-based. The method, then: FIG. 24 is a panel showing that metarrestin interferes with ribosomal biogenesis. An inducible RPL29-GFP-expressing cell line synthesizes RPL29-GFP when treated with tetracyclin (2nd column). When cells were treated with 1 μM metarrestin before tetracycline induction, the newly synthesized proteins accumulated in the nucleoli and nuclei (right most panels) compared to the DMSO control treated cells (2nd from right panels). Scale bars=5 μm.
To examine whether the disruption of the nucleolar structure impacts ribosome synthesis, a cell line expressing inducible GFP-RPL29 (a ribosomal subunit) was used.

For data set [1], the system named is Pol I transcription (5′ETS RNA). Description: rDNA transcription: BrU incorporation and qRT-PCR of 5′ETS. It is filed as cell-based. The method, then:
To determine which steps in ribosomal biogenesis that are disrupted by metarrestin, rDNA transcription was evaluated using a BrU incorporation assay, an in situ run-on assay that detects the localization pattern of newly synthesized RNA. Cells were rinsed once in glycerol buffer (20 mM Tris-HCl pH 7.4, 5 mM MgCl2, 25% glycerol, 0.5 mM PMSF, 0.5 mM EGTA) and followed by Br—U incorporation assay protocol. The cells were co-immunolabeled with C23 (Santa Cruz Biotechnology) at a 1:100 dilution and anti-BrdU that also recognizes Br—U (Sigma) at a 1:50 dilution.
To evaluate the impact on rDNA transcription in metarrestin-treated cells, the amounts of 5′ETS RNA were quantified. The amount of 5′ETS correlates with the amount of rDNA transcription because 5′ETS in nascent pre-rRNA transcripts is rapidly removed.
RT-PCR: Total RNA was isolated from cells using TRIZOL reagent (Invitrogen) according to the manufacturer's instructions. cDNA was synthesized with Random Hexamer (IDT DNA Technologies) or gene-specific primers using M-MLV Reverse Transcriptase (Invitrogen 28025-013). The DNA was PCR-amplified with gene-specific primers. 5′ETS-F: […] (SEQ ID NO: 11); 5′ETS-R: GAACGACACACCACCGTTC (SEQ ID NO: 12); eEF1A1-F: […] […]

In another data set the test system is PANC1, PC3M, and HeLa. As to the kind of experiment: DNA damage response, cell cycle and apoptosis. It counts as cell-based. The method, then: Genotoxic agents that intercalate into or alkylate DNA, such as actinomycin D, induce similar nucleolar segregation to that observed with metarrestin treatment. To determine whether metarrestin induces nucleolar changes through genotoxic effects or general cytotoxicity, the impact of metarrestin on DNA damage repair, cell cycle, and general Pol II transcription status in three cell lines, PANC1, PC3M, and HeLa, was evaluated. […]

Another data set relates to Pol II transcription. As to the kind of experiment: Pol II transcription status: CUGBP and SC35 immunolabeling. It is filed as cell-based. From the text: To further determine whether metarrestin interferes with Pol II transcription in general, CUGBP was immunolabeled. The steady state nuclear distribution of CUGBP, a multifunctional hnRNP protein highly enriched in the PNC, is dependent upon Pol II transcription.

For `N=c1c2c(-c3ccccc3)c(-c3ccccc3)n(Cc3ccccc3)c2ncn1[C@H]1CC[C@H](O)CC1` [metarrestin], the “Acute cytotoxicity (cellular ATP)” value in the data set with PC3M-GFP-PTB cells is recorded as “without acute cytotoxicity”. The “Growth of primary tumor xenografts” value with PC3M xenograft mice (25 mg/kg daily IP for 4 weeks) is on record as “modestly reduced growth”. Also, the Lung metastasis entry in the data set with PC3M xenograft mice (25 mg/kg daily IP for 4 weeks, P<0.05 vs vehicle) is “decreased development of lung metastasis”. For the same molecule, the “Body weight and behavior” value with PC3M xenograft mice (daily IP for 4 weeks) was “not significantly different”. Also, in the data set with GFP-RPL29, the “Newly synthesized GFP-RPL29 in the cytoplasm” value is recorded as “largely undetected in the cytoplasm”; the “Production of GFP-RPL29 and its nucleolar localization” value is “appeared unchanged”. Moreover, the “Organization of newly synthesized rRNA (BrU incorporation)” value in data set [1] (five-minute incubation) was “altered into tight small clusters”. In addition, the “5′ETS RNA (quantitative RT-PCR)” value in data set [1] (vs DMSO-treated control cells) was “substantial reduction of 5′ETS RNA”. The “Apoptotic index, cells undergoing apoptosis” value in the data set on PANC1, PC3M, and HeLa is “less than 1%”. The “DNA damage response signature factors” value in the data set on PANC1, PC3M, and HeLa (1 μM, 24 hours) is listed as “neither phosphorylated yH2AX or p53BP1, nor phosphorylated p53”. Moreover, the “Cell cycle pattern (DNA content, flow cytometry)” value in the data set on PANC1, PC3M, and HeLa (two different concentrations within 24 hours) is given as “did not show a significant alteration of cell cycle pattern”. Further, in the data set with Pol II transcription, the “Localization of CUGBP” value is “without causing cytoplasmic relocation of CUGBP” and the SC35 distribution pattern entry is on record as “not significantly changed”.
